Experimental data reported in ChEMBL document CHEMBL1201862, “PubChem BioAssay data set” (2004).
Calls of active or inactive are those of the source.

Assays:
[1] = THP-1 cell cytotoxicity, dose response, cytotoxicity control for non-replicating M. tuberculosis project (AID 489025); format: functional
[2] = Vero E6 cell cytotoxicity, dose response, cytotoxicity control for non-replicating M. tuberculosis project, secondary assay (AID 492998); format: functional, VeroE6; conditions: Vero C1008
[3] = cells; format: functional
[4] = target: Serine/threonine-protein phosphatase PP1-alpha catalytic subunit (Homo sapiens, UniProt P62136); assay: PP1 phosphatase inhibitors, dose response, biochemical, fluorescence (AID 2403);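 note: phosphatase turnover of OMFP into fluorescent 3-O-methylfluorescein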
[5] = target: T1, Serine/threonine-protein phosphatase (Homo sapiens, UniProt Q9BPW0); assay: Counterscreen for inhibitors of PP1: fluorescence-based biochemical high throughput dose response assay to identify inhibitors of Protein Phosphatase 5 (PP5). [Related pubchem assays: 2034 (Summary (PP5 inhibitors)), 1987 (PP5 inhibitors in singlate), 2235 (PP1 inhibitors in singlate)]
T1 sequence (Q9BPW0 whole entry): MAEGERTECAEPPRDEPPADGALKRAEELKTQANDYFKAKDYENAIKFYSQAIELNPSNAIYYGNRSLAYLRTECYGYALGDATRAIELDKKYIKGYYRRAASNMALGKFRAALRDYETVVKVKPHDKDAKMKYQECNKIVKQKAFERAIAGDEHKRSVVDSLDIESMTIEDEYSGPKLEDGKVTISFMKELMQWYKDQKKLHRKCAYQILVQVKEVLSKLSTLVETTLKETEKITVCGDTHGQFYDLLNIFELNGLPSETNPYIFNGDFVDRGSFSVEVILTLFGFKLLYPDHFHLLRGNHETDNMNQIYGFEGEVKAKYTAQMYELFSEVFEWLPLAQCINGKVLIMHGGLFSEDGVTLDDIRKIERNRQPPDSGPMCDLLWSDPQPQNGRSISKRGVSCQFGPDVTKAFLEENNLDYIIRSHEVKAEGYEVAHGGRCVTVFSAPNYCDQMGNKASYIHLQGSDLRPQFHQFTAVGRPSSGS

[6] = target: T2, Coagulation factor XII (Homo sapiens, UniProt P00748); format: functional;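 note: activated factor XIIa alpha cleaving a fluorogenic AMC peptide substrate; inhibitor potency from loss of enzyme activity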
T2 sequence (P00748 whole entry): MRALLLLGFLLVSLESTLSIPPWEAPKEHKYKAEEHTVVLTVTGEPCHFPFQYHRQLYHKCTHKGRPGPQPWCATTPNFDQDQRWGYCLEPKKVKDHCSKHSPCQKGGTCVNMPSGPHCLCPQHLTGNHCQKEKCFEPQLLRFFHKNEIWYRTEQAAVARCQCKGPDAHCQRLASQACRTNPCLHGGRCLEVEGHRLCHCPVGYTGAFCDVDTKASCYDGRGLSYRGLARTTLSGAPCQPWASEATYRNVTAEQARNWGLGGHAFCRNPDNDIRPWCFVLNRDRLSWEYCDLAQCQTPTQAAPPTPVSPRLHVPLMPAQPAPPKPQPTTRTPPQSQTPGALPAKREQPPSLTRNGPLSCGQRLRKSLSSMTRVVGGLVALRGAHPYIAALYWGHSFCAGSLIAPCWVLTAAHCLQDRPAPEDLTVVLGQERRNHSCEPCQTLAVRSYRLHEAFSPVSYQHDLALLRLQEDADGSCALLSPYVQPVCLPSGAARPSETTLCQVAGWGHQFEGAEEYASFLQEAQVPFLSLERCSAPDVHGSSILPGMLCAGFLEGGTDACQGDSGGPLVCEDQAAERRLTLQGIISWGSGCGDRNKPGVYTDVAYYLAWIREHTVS

[7] = target: Troponin, cardiac muscle (Homo sapiens, UniProt P19429+P45379+P63316); assay: Fluorescence-based biochemical high throughput dose response assay for activators of the calcium sensitivity of cardiac Regulated Thin Filaments (RTF). [Related pubchem assays (depositor defined):AID493008, AID493018, AID504382, AID504383]; format: protein-complex assay
[8] = target: T3, Polyadenylate-binding protein 1 (Homo sapiens, UniProt P11940); assay: PABP1 MLLE–PAM2 interaction inhibitors, dose response, miRNA deadenylation inhibitor project, biochemical, fluorescence polarization, Cy5-PAM2 peptide, secondary (AID 602260); format: functional; conditions: read-out: IC50_Mean
[9] = target: T3, Polyadenylate-binding protein 1; assay: PABP1 MLLE–PAM2 binding inhibitor potency, dose response, biochemical, fluorescence polarization, FITC-PAM2 peptide (AID 602259); format: functional; conditions: read-out: IC50_Mean
[10] = target: T4, Protein skinhead-1 (Caenorhabditis elegans, UniProt P34707); format: functional
T4 sequence (P34707 whole entry): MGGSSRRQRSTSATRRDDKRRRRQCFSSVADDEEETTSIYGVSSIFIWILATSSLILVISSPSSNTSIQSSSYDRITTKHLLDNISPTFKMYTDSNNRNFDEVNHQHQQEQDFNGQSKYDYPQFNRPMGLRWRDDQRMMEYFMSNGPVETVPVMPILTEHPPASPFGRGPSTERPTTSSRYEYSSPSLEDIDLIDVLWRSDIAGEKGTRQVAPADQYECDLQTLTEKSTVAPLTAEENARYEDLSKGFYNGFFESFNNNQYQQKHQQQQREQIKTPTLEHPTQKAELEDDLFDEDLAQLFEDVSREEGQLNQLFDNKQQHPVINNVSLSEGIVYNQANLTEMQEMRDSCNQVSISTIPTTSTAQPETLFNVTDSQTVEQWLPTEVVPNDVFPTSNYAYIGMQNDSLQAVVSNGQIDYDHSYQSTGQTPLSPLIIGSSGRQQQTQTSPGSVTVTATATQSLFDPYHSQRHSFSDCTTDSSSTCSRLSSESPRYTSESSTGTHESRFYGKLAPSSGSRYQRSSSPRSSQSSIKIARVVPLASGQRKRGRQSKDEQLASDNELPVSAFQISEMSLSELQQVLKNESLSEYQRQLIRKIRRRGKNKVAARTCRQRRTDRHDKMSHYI

[11] = target: G-protein coupled receptor 55 (Homo sapiens, UniProt Q9Y2T6); assay: GPR55 antagonists blocking LPI-driven arrestin recruitment, primary screen, imaging, U2OS, beta-arrestin-GFP, LPI agonist (AID 2013); format: functional;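 note: antagonist potency measured as reduced agonist-driven arrestin aggregation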
[12] = target: Voltage-dependent T-type calcium channel subunit alpha-1H (Homo sapiens, UniProt O95180); format: functional;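 note: channel activity triggered by adding a high calcium stimulation buffer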
[13] = Luminescence Cell-Based Dose Retest to Confirm Inhibitors of Cancer Stem Cells. [Related pubchem assays (depositor defined):AID2717, AID2721]; format: functional; conditions: Homo sapiens
[14] = A Cell Based Secondary Assay To Explore Cytotoxicity of Compounds that Sensitize Mycobacterium Tuberculosis to Beta-Lactam Antibiotics.; format: functional
[15] = target: Cytochrome P450 2D6 (Homo sapiens, UniProt P10635);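 note: CYP2D6 member of a cytochrome P450 panel assay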
[16] = tested on: Streptococcus sp. 'group A'; assay: growth inhibition of control SK(-) GAS strain, dose response, counter-screen for streptokinase expression inhibitor project, luminescence, kanamycin, BacTiterGlo, confirmation (AID 1900); format: functional, organism-based
[17] = target: T5, Streptokinase A (Streptococcus pyogenes serotype M1, UniProt P10520); assay: S. pyogenes streptokinase expression inhibitors, potency, dose response, plasminogen activation absorbance, OD405 (AID 1914); format: functional, Streptococcus pyogenes M1 GAS;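 note: secreted streptokinase activity via plasminogen activation per viability signal from cell pellet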
T5 sequence (P10520 whole entry): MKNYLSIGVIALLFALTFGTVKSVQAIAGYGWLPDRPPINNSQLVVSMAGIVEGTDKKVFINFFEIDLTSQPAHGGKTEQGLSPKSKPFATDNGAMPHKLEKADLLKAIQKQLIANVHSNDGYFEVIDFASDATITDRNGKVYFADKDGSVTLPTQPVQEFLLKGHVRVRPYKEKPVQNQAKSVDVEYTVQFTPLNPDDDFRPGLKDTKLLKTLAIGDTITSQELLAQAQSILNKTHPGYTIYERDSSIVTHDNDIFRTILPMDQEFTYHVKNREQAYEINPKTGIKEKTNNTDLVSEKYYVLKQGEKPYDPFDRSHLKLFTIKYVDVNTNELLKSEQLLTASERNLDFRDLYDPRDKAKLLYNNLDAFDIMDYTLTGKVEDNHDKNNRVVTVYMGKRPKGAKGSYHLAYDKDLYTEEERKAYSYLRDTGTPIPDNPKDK

[18] = tested on: Streptococcus; assay: Group A Streptococcus viability loss, dose response, counter-screen for streptokinase expression inhibitor project, luminescence, BacTiterGlo (AID 1915); format: functional, organism-based;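 note: potency for reduction of bacterial viability or growth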
[19] = inhibitors of intracellular T. cruzi replication, confirmation, NIH3T3 host cells, beta-gal luminescence (AID 2044); format: functional, cell-based;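 note: intracellular parasites grown in NIH/3T3 mouse fibroblasts as host cells; luminescent beta-galactosidase reporter signal from transgenic T. cruzi replicating inside host cells; inhibitors lower the luminescence signal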
[20] = cytotoxicity toward NIH3T3 fibroblasts, dose response, counter-screen, cell-based, ATP luminescence, mouse fibroblasts (AID 2010); format: functional;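 note: cells exposed to compound for about 90 hours before reading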
[21] = cells; format: functional, cell-based
[22] = target: T6, Trace amine-associated receptor 1 (Homo sapiens, UniProt Q96RJ0); assay: Fluorescence-based cell-based high throughput dose response assay to identify agonists of the human trace amine associated receptor 1 (TAAR1).; format: functional
T6 sequence (Q96RJ0 whole entry): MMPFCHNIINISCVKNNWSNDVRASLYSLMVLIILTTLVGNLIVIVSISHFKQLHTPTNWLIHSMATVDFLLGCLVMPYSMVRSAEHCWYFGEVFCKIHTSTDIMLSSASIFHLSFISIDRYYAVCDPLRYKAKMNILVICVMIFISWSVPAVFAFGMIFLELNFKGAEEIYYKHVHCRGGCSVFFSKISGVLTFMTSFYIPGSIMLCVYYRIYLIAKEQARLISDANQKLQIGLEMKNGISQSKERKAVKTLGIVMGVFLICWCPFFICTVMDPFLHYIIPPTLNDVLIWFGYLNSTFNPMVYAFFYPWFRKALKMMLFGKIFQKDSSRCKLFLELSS

[23] = target: T6, Trace amine-associated receptor 1; assay: Counterscreen for agonists of the human trace amine associated receptor 1 (hTAAR1): Fluorescence-based cell-based high throughput dose response assay to identify hTAAR1 agonist that also desensitize TAAR1 receptor response.; format: functional
[24] = cells; format: functional, cell-based; remark: listed apart in the source
[25] = target: Heat shock cognate 71 kDa protein (Homo sapiens, UniProt P11142); assay: In Vitro Hsc70 Dose Response Fluorescence Polarization Assay. [Related pubchem assays: 1072 ]
[26] = target: Heat shock 70 kDa protein 1A (Homo sapiens, UniProt P0DMV8); assay: Hsp70 inhibitors, SAR follow-up, biochemical, fluorescence polarization (AID 1072)

T3 sequence (P11940 whole entry): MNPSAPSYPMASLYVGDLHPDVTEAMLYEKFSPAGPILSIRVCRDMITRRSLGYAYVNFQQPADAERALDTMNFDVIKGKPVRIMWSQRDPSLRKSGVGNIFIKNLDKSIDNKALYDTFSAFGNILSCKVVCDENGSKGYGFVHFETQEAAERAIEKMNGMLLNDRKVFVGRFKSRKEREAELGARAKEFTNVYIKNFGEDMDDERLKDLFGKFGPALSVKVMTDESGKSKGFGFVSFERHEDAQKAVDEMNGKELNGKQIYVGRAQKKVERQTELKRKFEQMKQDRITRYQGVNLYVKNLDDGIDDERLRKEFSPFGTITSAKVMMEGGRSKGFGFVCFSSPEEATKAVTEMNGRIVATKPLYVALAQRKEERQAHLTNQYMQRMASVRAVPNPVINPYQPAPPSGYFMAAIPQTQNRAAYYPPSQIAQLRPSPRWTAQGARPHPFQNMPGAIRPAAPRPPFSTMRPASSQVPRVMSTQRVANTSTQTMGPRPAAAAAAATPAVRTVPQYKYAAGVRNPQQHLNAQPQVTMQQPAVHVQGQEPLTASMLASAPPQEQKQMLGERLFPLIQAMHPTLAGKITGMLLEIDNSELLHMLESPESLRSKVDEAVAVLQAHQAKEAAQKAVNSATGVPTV
Sequence of Serine/threonine-protein phosphatase PP1-alpha catalytic subunit (P62136 whole entry): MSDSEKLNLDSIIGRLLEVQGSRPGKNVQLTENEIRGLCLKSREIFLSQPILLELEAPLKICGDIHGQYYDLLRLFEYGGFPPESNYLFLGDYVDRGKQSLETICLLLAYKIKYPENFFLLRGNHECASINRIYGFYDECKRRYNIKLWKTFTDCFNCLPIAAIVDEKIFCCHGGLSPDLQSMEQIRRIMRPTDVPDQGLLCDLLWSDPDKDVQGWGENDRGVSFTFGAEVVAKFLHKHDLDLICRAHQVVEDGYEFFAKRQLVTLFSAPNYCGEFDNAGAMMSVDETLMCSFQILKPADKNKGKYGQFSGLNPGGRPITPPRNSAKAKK
Sequence of Voltage-dependent T-type calcium channel subunit alpha-1H (O95180 whole entry): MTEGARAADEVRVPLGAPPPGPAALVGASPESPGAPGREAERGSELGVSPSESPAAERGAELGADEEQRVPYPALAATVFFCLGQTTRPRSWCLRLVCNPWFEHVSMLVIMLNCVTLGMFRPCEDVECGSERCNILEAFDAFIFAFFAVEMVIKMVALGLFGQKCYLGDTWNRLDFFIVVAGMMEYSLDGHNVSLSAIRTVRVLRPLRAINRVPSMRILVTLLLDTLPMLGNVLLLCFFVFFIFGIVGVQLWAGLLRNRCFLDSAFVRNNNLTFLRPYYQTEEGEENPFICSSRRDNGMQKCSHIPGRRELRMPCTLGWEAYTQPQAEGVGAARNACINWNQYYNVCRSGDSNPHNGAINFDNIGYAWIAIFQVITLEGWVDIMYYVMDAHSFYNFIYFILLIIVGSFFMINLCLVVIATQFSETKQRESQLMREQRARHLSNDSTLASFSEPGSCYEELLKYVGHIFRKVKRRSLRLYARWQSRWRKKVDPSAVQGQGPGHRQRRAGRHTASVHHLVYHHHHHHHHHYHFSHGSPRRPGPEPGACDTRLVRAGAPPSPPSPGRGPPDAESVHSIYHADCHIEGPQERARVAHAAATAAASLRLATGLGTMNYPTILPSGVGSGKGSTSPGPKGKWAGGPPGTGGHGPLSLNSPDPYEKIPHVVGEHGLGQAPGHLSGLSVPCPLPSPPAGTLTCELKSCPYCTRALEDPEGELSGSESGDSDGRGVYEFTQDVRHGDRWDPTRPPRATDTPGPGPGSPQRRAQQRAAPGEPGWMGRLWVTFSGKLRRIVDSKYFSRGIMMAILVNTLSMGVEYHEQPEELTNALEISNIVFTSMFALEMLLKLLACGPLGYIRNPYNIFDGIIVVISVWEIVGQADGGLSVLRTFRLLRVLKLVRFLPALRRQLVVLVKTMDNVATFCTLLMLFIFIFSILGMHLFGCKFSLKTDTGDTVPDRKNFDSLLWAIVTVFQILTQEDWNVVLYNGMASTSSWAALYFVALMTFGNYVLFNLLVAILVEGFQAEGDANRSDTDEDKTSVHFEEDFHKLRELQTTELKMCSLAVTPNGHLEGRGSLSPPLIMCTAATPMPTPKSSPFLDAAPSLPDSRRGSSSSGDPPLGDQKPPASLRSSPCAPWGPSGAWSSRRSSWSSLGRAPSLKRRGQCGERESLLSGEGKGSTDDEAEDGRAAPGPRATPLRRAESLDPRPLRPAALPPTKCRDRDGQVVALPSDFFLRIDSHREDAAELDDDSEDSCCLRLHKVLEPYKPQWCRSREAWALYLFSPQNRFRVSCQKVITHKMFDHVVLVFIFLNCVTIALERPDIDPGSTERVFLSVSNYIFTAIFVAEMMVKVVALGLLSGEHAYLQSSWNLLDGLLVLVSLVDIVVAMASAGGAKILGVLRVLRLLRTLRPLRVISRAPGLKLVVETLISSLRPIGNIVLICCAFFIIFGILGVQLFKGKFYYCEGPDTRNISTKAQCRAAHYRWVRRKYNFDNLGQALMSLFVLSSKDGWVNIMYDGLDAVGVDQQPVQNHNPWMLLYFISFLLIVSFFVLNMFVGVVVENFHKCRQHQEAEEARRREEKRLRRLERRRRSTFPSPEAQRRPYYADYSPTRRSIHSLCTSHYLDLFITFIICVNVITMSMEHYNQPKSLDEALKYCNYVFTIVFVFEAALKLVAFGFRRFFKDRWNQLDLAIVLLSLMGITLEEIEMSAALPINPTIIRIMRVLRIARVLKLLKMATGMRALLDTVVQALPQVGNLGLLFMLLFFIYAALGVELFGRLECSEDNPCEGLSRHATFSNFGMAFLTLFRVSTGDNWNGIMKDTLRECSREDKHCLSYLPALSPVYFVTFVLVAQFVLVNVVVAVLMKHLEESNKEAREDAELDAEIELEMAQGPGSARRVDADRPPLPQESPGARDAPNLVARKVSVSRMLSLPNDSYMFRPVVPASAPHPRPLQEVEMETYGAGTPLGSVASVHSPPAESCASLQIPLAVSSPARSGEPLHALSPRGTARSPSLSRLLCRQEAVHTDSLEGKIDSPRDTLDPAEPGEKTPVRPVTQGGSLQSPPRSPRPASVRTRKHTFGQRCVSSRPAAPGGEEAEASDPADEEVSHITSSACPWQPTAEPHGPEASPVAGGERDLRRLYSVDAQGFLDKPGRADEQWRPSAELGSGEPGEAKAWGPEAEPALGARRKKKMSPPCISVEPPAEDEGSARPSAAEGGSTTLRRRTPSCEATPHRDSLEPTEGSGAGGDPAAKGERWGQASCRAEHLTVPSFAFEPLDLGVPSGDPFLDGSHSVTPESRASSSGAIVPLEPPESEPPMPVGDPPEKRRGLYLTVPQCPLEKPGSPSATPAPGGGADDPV
Sequence of Heat shock cognate 71 kDa protein (P11142 whole entry): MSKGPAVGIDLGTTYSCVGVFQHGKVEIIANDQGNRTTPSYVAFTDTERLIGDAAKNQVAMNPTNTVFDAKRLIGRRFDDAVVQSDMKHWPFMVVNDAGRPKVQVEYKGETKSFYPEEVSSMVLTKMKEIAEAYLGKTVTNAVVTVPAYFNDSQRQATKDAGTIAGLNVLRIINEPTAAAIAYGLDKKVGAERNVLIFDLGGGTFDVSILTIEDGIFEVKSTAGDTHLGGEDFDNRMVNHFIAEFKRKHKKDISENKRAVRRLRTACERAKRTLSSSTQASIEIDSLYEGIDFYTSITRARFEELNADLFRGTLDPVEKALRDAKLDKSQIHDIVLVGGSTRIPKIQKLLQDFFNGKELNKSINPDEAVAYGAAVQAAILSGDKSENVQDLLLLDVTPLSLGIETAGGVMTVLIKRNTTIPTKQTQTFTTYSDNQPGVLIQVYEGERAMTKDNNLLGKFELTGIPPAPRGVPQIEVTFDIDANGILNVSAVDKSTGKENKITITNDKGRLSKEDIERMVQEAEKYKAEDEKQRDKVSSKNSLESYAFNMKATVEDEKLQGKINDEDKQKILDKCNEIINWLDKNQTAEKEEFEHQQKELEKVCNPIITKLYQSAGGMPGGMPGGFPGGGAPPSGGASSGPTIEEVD
Sequence of Cytochrome P450 2D6 (P10635 whole entry): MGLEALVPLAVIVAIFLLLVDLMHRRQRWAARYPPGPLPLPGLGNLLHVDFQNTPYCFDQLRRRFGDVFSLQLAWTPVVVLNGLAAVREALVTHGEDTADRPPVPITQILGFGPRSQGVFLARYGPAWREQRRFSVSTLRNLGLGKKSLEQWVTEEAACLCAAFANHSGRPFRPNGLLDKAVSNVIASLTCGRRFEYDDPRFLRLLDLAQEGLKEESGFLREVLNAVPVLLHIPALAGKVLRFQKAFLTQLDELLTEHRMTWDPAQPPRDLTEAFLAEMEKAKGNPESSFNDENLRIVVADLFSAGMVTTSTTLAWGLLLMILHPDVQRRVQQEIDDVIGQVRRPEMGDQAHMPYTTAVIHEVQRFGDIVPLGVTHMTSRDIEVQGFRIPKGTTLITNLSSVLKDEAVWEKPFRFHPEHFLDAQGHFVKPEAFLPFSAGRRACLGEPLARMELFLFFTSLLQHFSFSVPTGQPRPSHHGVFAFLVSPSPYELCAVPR
Sequence of G-protein coupled receptor 55 (Q9Y2T6 whole entry): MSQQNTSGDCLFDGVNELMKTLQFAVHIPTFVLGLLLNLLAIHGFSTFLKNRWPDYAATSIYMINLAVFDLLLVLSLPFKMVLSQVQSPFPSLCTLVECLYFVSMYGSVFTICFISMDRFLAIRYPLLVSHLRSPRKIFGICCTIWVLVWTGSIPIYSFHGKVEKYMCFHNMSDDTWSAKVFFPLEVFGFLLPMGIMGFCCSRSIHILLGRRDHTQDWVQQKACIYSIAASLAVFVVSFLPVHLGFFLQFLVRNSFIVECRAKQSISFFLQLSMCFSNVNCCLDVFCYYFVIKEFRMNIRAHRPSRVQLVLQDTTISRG

COc1cccc(-c2nnc(NC(=O)c3cccc(F)c3)o2)c1
CC50 [1]: 13 µM (active) | CC50 [2]: 9 µM (active) | IC50 [3]: 3.03 µM (active)

CC1CC(NC(=O)C2C3CCC(O3)C2C(=O)O)CC(C)(C)C1 (stereo unspecified)
IC50 [4]: 2.85 µM (active) | IC50 [5]: 2.78 µM (active) | IC50 [6]: > 50 µM (inactive)

COC(=O)C1=C(C)NC(=O)/C1=C\N(C)C
EC50 [7]: > 71.5 µM (inactive) | IC50 [8]: > 66 µM (inactive) | IC50 [9]: > 66 µM (inactive) | IC50 [10]: > 100 µM (inactive)

N#C/C(=C\c1ccccc1[N+](=O)[O-])C(=O)NCc1ccccc1
IC50 [11]: 3.09 µM (active) | IC50 [8]: > 66 µM (inactive) | IC50 [9]: > 66 µM (inactive)

CCC(c1nnnn1Cc1ccco1)N1CCN(c2cc(Cl)ccc2C)CC1 (stereo unspecified)
EC50 [12]: 4.19 µM (active) | AC50 [13]: 3.44 µM (active)

COc1ccc(C(=O)/C=C/c2cn(CC(O)CN3CCN(C)CC3)c3ccccc23)cc1OC (stereo unspecified)
EC50 [7]: 12.3 µM (inactive)

Cn1nccc1NC(=O)Nc1cccc(Cl)c1Cl
EC50 [7]: > 71.4 µM (inactive)

COc1ccc(CN(CCC#N)C(=S)NC(=O)c2ccccc2)cc1
CC50 [14]: 39 µM (active) | AC50 [15]: 25.1 µM (inconclusive)

COc1ccccc1Sc1nc(-c2ccccn2)ncc1OC
EC50 [16]: 27.1 µM (active) | IC50 [4]: 7.52 µM (active) | EC50 [17]: > 150 µM (not active) | IC50 [5]: 66.8 µM (not active) | EC50 [18]: > 150 µM (not active)

O=C(Nc1ccccc1-c1nnc(SCc2ccc(Cl)cc2)o1)c1ccccc1
EC50 [19]: 2.22 µM (active) | EC50 [20]: > 60 µM (not active) | EC50 [12]: 6.46 µM (active)

CCn1cc(C(=O)O)c(=O)c2cc(F)c(N/N=C/c3ccccc3)cc21
CC50 [14]: 34.1 µM (active) | IC50 [21]: > 29.9 µM (inactive) | EC50 [22]: 19.7 µM (inactive) | IC50 [23]: 1.68 µM (active) | EC50 [24]: > 29.9 µM (inactive)

CC1C2C=CC1C(c1c3ccc(=O)c(O)c-3oc3c(O)c(O)ccc13)C2C(=O)O (stereo unspecified)
IC50 [25]: 5.58 µM (active) | IC50 [26]: 634 nM (active)

O=C1Nc2ccccc2N2CCCC12 (stereo unspecified)
IC50 [4]: > 67 µM (not active) | IC50 [5]: > 2.48 µM (active)
